According to patent publication US10532053B2, “Histone deacetylase inhibitor, and preparation method and use thereof” (GUANGDONG ZHONGSHENG PHARMACEUTICAL CO., LTD, priority 2015, dated 2020):
Like-named read-outs stand apart in the source and are kept apart here.

How the values were obtained:
Assay in all cases: Cell proliferative activity (MTT / cck-8)
Format in all cases: cell-based
[1] = test system: Human ovarian cancer cell SKOV-3
How it was run: (§1)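 Plating density was 2000-3000 log-phase cells/well, and adherent cells attached before compound exposure. Endpoint: CCK-8 for lymphoma cells, MTT for solid-tumour cells.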

Leukemia K562 = conditions: Homo sapiens, read-out: Half-Inhibitory Concentration IC50 K562
How it was run: as §1

[2] = test system: Human lung cancer cell H460
How it was run: as §1

## COc1ccc(N(C)c2nc(C)nc3ccccc23)cc1OCCCC(=O)NO [III-2, N-hydroxy-4-(2-methoxy-5-(methyl(2-methyl-4-quinazolinyl)amino)phenoxy) butanamide]
[1]; SK-OV-3, Ovarian cancer, Table 5, read-out: Half-Inhibitory Concentration IC50 SKOV-3
  IC50: 50 ± 8 nM
[1]; SK-OV-3, incubated for 96 hours, read-out: Half-Inhibitory Concentration IC50 Human ovarian cancer cell SKOV-3
  IC50: 10 to 100 nM
Leukemia K562
  IC50: 63 ± 18 nM
[2]; NCI-H460, Lung cancer, Table 5, read-out: Half-Inhibitory Concentration IC50 H460
  IC50: 55 ± 13 nM
[2]; NCI-H460, incubated for 96 hours, read-out: Half-Inhibitory Concentration IC50 Human lung cancer cell H460
  IC50: 10 to 100 nM
